# Details: not given
SMILES,logP,solubility [mM]
CC1=CCC(C(C)(C)O)CC1 (stereo unspecified),2.98,–
COc1ccc(OCCN(C)C)cc1,1.23,–
CCC/N=C(N)/N=C(\N)Nc1ccc(Cl)cc1,2.63,–
N#Cc1cc(-c2ccncc2)cnc1NCCCO,1.42,–
C=Cc1cc(C)ccc1C,4.16,–
CCN(CC)P(=O)(N(C)C)N(C)C,0.66,–
Cc1cc(Br)cc(C)c1C#[N+][O-],3.63,–
CCOC1OC2OC3(C)CC(OC4OC(C(=O)O)C(O)C(O)C4O)C4C(C)CCC(C1C)C24OO3 (stereo unspecified),1.73,–
Oc1c(O)c(Cl)c(Cl)c(Cl)c1Cl,–,0.0109
OCCC(F)(F)C(F)(F)C(F)(F)C(F)(F)C(F)(F)C(F)(F)F,4.54,–
COC(=O)C1=C(C)NC(C)=C(C(=O)OCC(C)C)C1c1ccccc1[N+](=O)[O-] (stereo unspecified),3.26,–
NC(=O)N=NC(N)=O,-1.7,–
ClC1=C(Cl)C2(Cl)C3C(Cl)C(Cl)(Cl)CC3C1(Cl)C2(Cl)Cl (stereo unspecified),6.2,–
Oc1cccc(-c2ccccc2O)c1,4.06,–
NS(=O)(=O)c1nc2ccc(OCc3ccccc3)cc2s1,3.18,–
COP(N)(=S)Oc1ccccc1C(=O)OC(C)C (stereo unspecified),2.7,–
CC(=O)Nc1cc(NS(=O)(=O)C(F)(F)F)c(C)cc1C,2.02,–
CC(=O)OCN1C(=O)C=C(C)C1=O,0.45,–
O=[N+]([O-])c1c2ccccc2cc2ccccc12,4.78,–
O=C(O)CNCP(=O)(O)O,-3.4,–
Cc1ccc(C(C)C)c(OCCN(C)C)c1,3.79,–
CCCCCCCC(=O)[O-].[Na+],-1.38,–
O=c1nc[nH]c2c1ncn2[C@@H]1O[C@H](CO)C[C@@H]1F,-1.21,–
Cc1cn([C@H]2CC[C@@H](CO)O2)c(=O)[nH]c1=S,0.44,–
Clc1ccc(Nc2cc3nc4ccccc4n(-c4ccc(Cl)cc4)c-3cc2=NCCCN2CCCCC2)cc1,8.18,–
CC(O)C#N (stereo unspecified),-0.94,–
O=C(Nc1ccc(Cl)cc1)c1cccc([N+](=O)[O-])c1O,2.16,–

# Same assay, conditions: 20 °C
row,SMILES,solubility [mM]
1,Cc1cncc(C)c1,308
2,CCC(=O)c1ccccc1,14.9
3,CCC#CC(C)O (stereo unspecified),387
4,CN(C)C(=N)N,18.6
5,N=C(N)N,31.1
6,ClCC(Br)CBr (stereo unspecified),4.69
7,C=CCN(CC=C)c1c(C)cc(OC(=O)NC)cc1C,0.255

# Same assay, conditions: 22 °C
row,SMILES,solubility [mM]
1,ClC=CCCl (mixture of isomers),14.5

# Same assay, conditions: 22.0 °C
row,SMILES,log10 OH rate constant (cm³/molecule/s)
1,CC(C)CO[N+](=O)[O-],-12

# Same assay, conditions: 23.0 °C
row,SMILES,log10 OH rate constant (cm³/molecule/s)
1,C=C1C2CCC(C2)C1(C)C (stereo unspecified),-10.3
2,C=C1CCC=C(C)CC[C@@H]2[C@@H]1CC2(C)C,-9.7
3,CCC(=O)C(O)CC (stereo unspecified),-10.8
4,C=CC(C)(O)CCC=C(C)C (stereo unspecified),-9.8
5,CC(=O)C(C)O (stereo unspecified),-11

# Same assay, conditions: 24 °C
row,SMILES,solubility [mM]
1,CCCCN(CCCC)N=O,8.03

# Same assay, conditions: 24.0 °C
row,SMILES,log10 OH rate constant (cm³/molecule/s)
1,Clc1ccccc1-c1ccccc1Cl,-11.7

# Same assay, conditions: 25 °C
row,SMILES,solubility [mM]
1,c1ccc2c(c1)ccc1c3ccc4ccccc4c3[nH]c21,3.78e-05
2,CC(=O)C=CC1=C(C)CCCC1(C)C,0.879
3,Clc1cccc2cccc(Cl)c12,0.0016
4,Clc1ccccc1-c1ccccc1Cl,0.00829
5,ClC(Cl)=C(Cl)C(Cl)(Cl)Cl,0.0684
6,CN(C)c1ccc(N=Nc2ccccc2)cc1,0.00102
7,Clc1cccc(Cl)c1Cl,0.0992
8,C=C(C)C1CC=C(C)CC1 (stereo unspecified),0.0777
9,c1ccc2cnncc2c1,384
10,COC(C)(C)CC(C)=O,2150
11,c1ccc2c(c1)[nH]c1ccccc12,0.0108
12,CCCCCCCCCCN,3.5
13,CCOC(=O)COc1cc(Cl)c(Cl)cc1Cl,0.0141
14,OCC#CCO,4340
15,ClC1=C(Cl)C2(Cl)C3C(Cl)C=CC3C1(Cl)C2(Cl)Cl (stereo unspecified),0.000482
16,C#Cc1ccccc1,4.46
17,O=CC=Cc1ccccc1,10.7
18,Clc1cc(Cl)c(Cl)cc1Cl,0.00276
19,CC(C)CO[N+](=O)[O-],11.2
20,O=[N+]([O-])c1c2ccccc2cc2ccccc12,0.000511
21,Clc1ccc(-c2ccc(Cl)c(Cl)c2Cl)cc1Cl,1.04e-05

# Same assay, conditions: 25.0 °C
row,SMILES,log10 OH rate constant (cm³/molecule/s)
1,CCOCCOCC,-10.2
2,c1ccc2c(c1)Oc1ccccc1O2,-10.9
3,CCSC(=O)N(CC)C1CCCCC1,-10.5
4,CCCCOCOCCCC,-10.5
5,O=CC(Cl)(Cl)Cl,-11.8
6,c1cc2c3c(cccc3c1)CC2,-10.2
7,O=CC(F)Cl (stereo unspecified),-11.7
8,COC(=O)CCCC(=O)OC,-11.5
9,CC(Br)Br,-12.6
10,CCCC(=O)O,-11.6
11,CCCCBr,-11.6
12,C=C1CCC2(C(C)C)CC12 (stereo unspecified),-9.93
13,CCCCCCCl,-11.4
14,FC(F)OC(C(F)(F)F)C(F)(F)F,-13.1

# Same assay, conditions: 26 °C
row,SMILES,solubility [mM]
1,CCNc1nc(O)nc(NC(C)C)n1,0.0299

# Same assay, conditions: 30 °C
row,SMILES,solubility [mM]
1,CN(C)C,15100
2,Nc1ccccc1[N+](=O)[O-],10.6

# Source: the OPERA property sets (Mansouri et al. 2018)
